Experimental data taken from US20140066369A1, “Modulators Of The GPR119 Receptor And The Treatment Of Disorders Related Thereto” (ARENA PHARMACEUTICALS, INC., priority 2011, published 2014).

Assays:
hGPR119 = target: T1, hGPR119 (Homo sapiens, UniProt Q8TDV5); assay: HTRF assay for direct cAMP measurement in CHO-K1 cells stably expressing the GPR119 receptor; assay type: cell-based
T1 construct: expressed in transfected cells
T1 sequence (Q8TDV5 2-335): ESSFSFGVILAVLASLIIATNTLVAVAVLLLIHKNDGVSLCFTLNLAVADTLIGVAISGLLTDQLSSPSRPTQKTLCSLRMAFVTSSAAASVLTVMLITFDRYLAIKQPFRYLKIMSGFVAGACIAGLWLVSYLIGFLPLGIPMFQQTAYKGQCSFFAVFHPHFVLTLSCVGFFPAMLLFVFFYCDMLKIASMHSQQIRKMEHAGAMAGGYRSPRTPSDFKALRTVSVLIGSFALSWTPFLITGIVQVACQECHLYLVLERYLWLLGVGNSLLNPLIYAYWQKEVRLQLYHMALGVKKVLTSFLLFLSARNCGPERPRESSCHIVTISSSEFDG
Procedure: GPR119 agonists were evaluated in an HTRF® cAMP detection assay (Cisbio, cAMP Dynamic 2 Assay Kit; #62AM4PEJ) according to the manufacturer's instructions using CHO-K1 cells stably expressing the GPR119 receptor. CHO-K1 cells were transduced with a lentiviral vector encoding the nucleotide sequence of GPR119 (NCBI mRNA and protein reference sequences: NM_178471.2 & NP_848566). The N-terminus of the GPR119 nucleotide sequence was modified to replace the first, methionine-coding, codon with a nucleotide sequence coding for a standard, nine amino acid, hemagglutinin tag. Following transduction, cells expressing the GPR119 receptor were isolated and a single clone was isolated following standard dilution-cloning procedures. On the day of the assay, cultured CHO-GPR119 cells were harvested, suspended in assay buffer and plated into 384-well assay plates (PerkinElmer® Proxiplate® #6008280) at a density of 2,000 cells per well. A cAMP standard curve was added to each plate. Test compounds were dissolved in DMSO, serially diluted in DMSO and then diluted in assay buffer before addition to the cells. Test compounds were evaluated in triplicate, using 10-point, 5-fold serial dilutions starting at 10 μM. The final DMSO concentration in the assay was 0.5%. Compounds and cells were incubated for 1 h at room temperature and then detection reagents were added to each well (cAMP-D2 in cell lysis buffer, followed by europium cryptate-labeled anti-cAMP antibody). Plates were then incubated at room temperature for 1 h prior to reading. Time-resolved fluorescence measurements were collected on PerkinElmer Envision™ or BMG Pherastar™ microplate readers. The compound N-(2-fluoro-4-(methylsulfonyl) phenyl)-6-(4-(3-isopropyl-1,2,4-oxadiazol-5-yl)piperidin-1-yl)-5-nitropyrimidin-4-amine was used as a positive control in each runset while assay buffer containing 0.5% DMSO was used as the negative control. The HTRF® assay was used to determine EC50 values for GPR119 agonists.

male 129SVE mice [1] = assay: Oral glucose tolerance test (oGTT), glucose homeostasis in male 129SVE mice; assay type: in vivo
Procedure: Male 129SVE mice (approximately 8 weeks old) were fasted for 18 h and randomly grouped (n=6) to receive a GPR119 agonist (Compound 17) at 3 or 10 mg/kg (mg/kg body weight). The compound was delivered orally via a gavage needle (p.o., 4 mL/kg) 30 minutes prior to glucose bolus (3 g/kg) (time=−30 min in FIG. 1), with a separate group receiving vehicle (20% hydroxypropyl-beta-cyclodextrin (HPCD)) as control. At time 0 min the glucose bolus was administered. Levels of blood glucose were assessed using a glucometer (One-Touch Ultra™, LifeScan) at time −30 min (prior to compound administration), at 0 min (at time when glucose bolus was given), and at 20, 40, 60, 120 min post glucose bolus. Plasma glucose levels (Table B) and the glucose excursion curve (FIG. 1) are shown. The reduction in the glucose excursion area under the curve (AUC) from −30 to 120 min in GPR119 agonist-treated animals relative to vehicle is shown in FIG. 2.

male 129SVE mice [2] = assay: GIP release in male 129SVE mice (plasma total GIP, ELISA); assay type: in vivo; conditions: 3 or 30 mg/kg p.o.; blood sample after 45 min
Procedure: Male 129SVE mice (approximately 8 weeks old) were fasted for 18 h and randomly grouped (n=6) to receive a GPR119 agonist (Compound 17) at 3 or 30 mg/kg. Compound 17 was delivered orally via a gavage needle (p.o., 4 mL/kg), and after 45 min a blood sample was collected to determine plasma total GIP levels. A separate control group received vehicle (PET (80% PEG: 10% Ethanol: 10% Tween80™)). Plasma GIP levels were determined using a GIP (total) ELISA kit from Millipore.

SMILES: CCc1cnc(N2CCN([C@H]3CC[C@H](COc4ccc(S(C)(=O)=O)cc4)CC3)CC2)nc1 [Compound 5, 5-Ethyl-2-(4-((1r,4r)-4-((4-(methylsulfonyl)phenoxy)methyl)cyclohexyl)piperazin-1-yl)pyrimidine]
- EC50 (hGPR119): 106 nM

SMILES: CS(=O)(=O)c1ccc(OC[C@H]2CC[C@H](N3CCN(c4ncc(Cl)cn4)CC3)CC2)c(F)c1 [Compound 17, 5-Chloro-2-(4-((1r,4r)-4-((2-fluoro-4-(methylsulfonyl)phenoxy)methyl)cyclohexyl)piperazin-1-yl)pyrimidine]
- Plasma Glucose, Mean (male 129SVE mice [1]; 3 mg/kg p.o., 20 min post glucose bolus): 263.5 mg/dL
- Plasma Glucose, Mean (male 129SVE mice [1]; 3 mg/kg p.o., 40 min post glucose bolus): 304.8333 mg/dL
- Plasma Glucose, Mean (male 129SVE mice [1]; 3 mg/kg p.o., 60 min post glucose bolus): 247.6667 mg/dL
- Plasma Glucose, Mean (male 129SVE mice [1]; 3 mg/kg p.o., 120 min post glucose bolus): 166.3333 mg/dL
- Plasma Glucose, Mean (male 129SVE mice [1]; 3 mg/kg p.o., time relative to glucose bolus 0 min): 88.0 mg/dL
- Plasma Glucose, Mean (male 129SVE mice [1]; 3 mg/kg p.o., time relative to glucose bolus −30 min (prior to compound administration), oGTT, glucose 3 g/kg): 67.33 mg/dL
- Plasma Glucose, Mean (male 129SVE mice [1]; 10 mg/kg p.o., 20 min post glucose bolus): 203.8333 mg/dL
- Plasma Glucose, Mean (male 129SVE mice [1]; 10 mg/kg p.o., 40 min post glucose bolus): 234.8333 mg/dL
- Plasma Glucose, Mean (male 129SVE mice [1]; 10 mg/kg p.o., 60 min post glucose bolus): 186.1667 mg/dL
- Plasma Glucose, Mean (male 129SVE mice [1]; 10 mg/kg p.o., 120 min post glucose bolus): 167.3333 mg/dL
- Plasma Glucose, Mean (male 129SVE mice [1]; 10 mg/kg p.o., time relative to glucose bolus 0 min): 96.33 mg/dL
- Plasma Glucose, Mean (male 129SVE mice [1]; 10 mg/kg p.o., time relative to glucose bolus −30 min (prior to compound administration), oGTT, glucose 3 g/kg): 68.5 mg/dL
- Effect on blood glucose after challenge with glucose (male 129SVE mice [1]; 3 or 10 mg/kg p.o., 30 minutes prior to glucose bolus, relative to vehicle): lowered blood glucose
- Effect on GIP release (plasma total GIP) (male 129SVE mice [2]): stimulated the release of GIP
- EC50 (hGPR119): 51.8 nM

SMILES: N#Cc1ccc(OC[C@H]2CC[C@H](N3CCN(c4ncc(C(F)(F)F)cn4)CC3)CC2)cc1 [Compound 23, 4-(((1r,4r)-4-(4-(5-(Trifluoromethyl)pyrimidin-2-yl)piperazin-1-yl)cyclohexyl)methoxy) benzonitrile]
- EC50 (hGPR119): 1380 nM

SMILES: Cc1nc(S(C)(=O)=O)ccc1OC[C@H]1CC[C@H](N2CCN(c3ncc(C(F)(F)F)cn3)C[C@@H]2C)CC1 [Compound 26, 2-((S)-3-Methyl-4-((1r,4S)-4-((2-methyl-6-(methylsulfonyl)pyridin-3-yloxy)methyl)cyclohexyl)piperazin-1-yl)-5-(trifluoromethyl)pyrimidine]
- EC50 (hGPR119): 600 nM

SMILES: C[C@@H]1CN(c2ncc(Cl)cn2)CCN1[C@H]1CC[C@H](COc2ccc(S(C)(=O)=O)cc2F)CC1 [Compound 31, 5-Chloro-2-((R)-4-((1r,4R)-4-((2-fluoro-4-(methylsulfonyl)phenoxy)methyl)cyclohexyl)-3-methylpiperazin-1-yl)pyrimidine]
- EC50 (hGPR119): 70.1 nM

SMILES: CN(C)C(=O)c1ccc(OC[C@H]2CC[C@H](N3CCN(C(=O)OC(C)(C)C)CC3)CC2)c(F)c1 [Compound 38, tert-Butyl 4-((1r,4r)-4-((4-(dimethylcarbamoyl)-2-fluorophenoxy)methyl)cyclohexyl)piperazine-1-carboxylate]
- EC50 (hGPR119): 219 nM

SMILES: C[C@@H](OC(=O)N1CCN([C@H]2CC[C@H](COc3ccc(-n4cnnn4)cc3F)CC2)CC1)C(F)(F)F [Compound 44, (R)-1,1,1-Trifluoropropan-2-yl 4-((1r,4R)-4-((2-fluoro-4-(1H-tetrazol-1-yl)phenoxy)methyl)cyclohexyl) piperazine-1-carboxylate]
- EC50 (hGPR119): 22.2 nM

SMILES: CS(=O)(=O)c1ccc(OC[C@H]2CC[C@H](N3CCN(c4nc(C(F)(F)F)no4)CC3)CC2)c(F)c1 [Compound 64, 5-(4-((1r,4r)-4-((2-Fluoro-4-(methylsulfonyl)phenoxy)methyl)cyclohexyl)piperazin-1-yl)-3-(trifluoromethyl)-1,2,4-oxadiazole]
- EC50 (hGPR119): 13.7 nM
